# Where “and” joins values, the source holds several entries; their conditions need not be identical. Identical values can stand only once. Ends that are not written are not given here. Peptide text beside a SMILES is read from it.
# Columns and labels:
# SIRT5 = SIRT5 transcription, semi-quantitative RT-PCR in human epidermal progenitors; assay type: cell-based; details: 72 h
# Experimental: (§1) Human neonatal epidermal progenitors (Thermo Fisher Scientific, NY) were seeded in 6-well plates at a density of 2×10^5 cells/well. Each well received 2 ml of Epilife media containing 60 μM calcium chloride (Thermo Fisher Scientific, NY). Plates were incubated in a humidified chamber at 37 degrees Celsius and 5 percent CO2. Twenty-four hours later, cells were treated with various concentrations of oxyresveratrol or decapeptide-12 dissolved in PBS containing 5 percent DMSO. Control wells received vehicle only (5 percent DMSO and PBS). Final concentration of DMSO in each well was 0.05 percent.
# (§2) After a 72 hour incubation period, cells were trypsinized and total RNA extracted, using RNeasy kit (Qiagen, Valencia, Calif.) according to the manufacturer's protocol.
# (§3) RNA concentration was determined using nanodrop (Thermo fisher scientific, NY). Two μg of total RNA were used to synthesize cDNA using oligo dT primers and TaqMan reverse transcription reagents (Thermo fisher scientific, NY). The reaction was carried out in DNA Engine Peltier Thermal Cycler (Bio-Rad, Hercules, Calif.). The annealing temperature was 25 degrees Celsius for 10 minutes, followed by first strand synthesis at 48 degrees Celsius for 1 hour, and heat inactivation at 95 degrees Celsius for 5 minutes.
# (§4) The SIRT1-7 primers (table 1) were designed using Primer3. The semi-quantitative PCR reactions were performed on a DNA Engine Peltier Thermo Cycler (Bio-Rad, Hercules, Calif.). PCR was carried under the following conditions: denaturation at 94 degrees Celsius for 2 minutes and primer extension at 54 degrees Celsius for 30 seconds in 34 cycles for SIRT 1-7 and the housekeeping gene 18S.
# (§5) Samples were run and resolved on a 1.5 percent agarose gel containing 0.5 μg/ml of ethidium bromide and imaged using the FluorChem HD2 Imaging System (Protein simple, San Jose, Calif.). Densitometry analysis was carried out using the AlphaEase FC software (Protein simple, San Jose, Calif.). Intensity ratios were calculated as the intensity value for each gene divided by the intensity value of the internal control gene 18S.
# (§6) The effect of the decapeptides P4, P4A, P4B, and P4C upon the transcription levels of sirtuins 1-7 was evaluated. Table 4 summarizes transcription levels for all four decapeptides with the corresponding genes, at tested concentrations of: 10, 30, 50, 100, and 300 (all in μM).
# [1] = Trypan blue cell viability, 7 days, fibroblasts; assay type: cell-based; details: human, relative to control, read-out: fibroblast viability after 7 days
# Experimental: The effect of each of the decapeptides upon cell viability was also tested. In particular, cells were incubated with the decapeptide at various concentrations and then counted for viability relative to the control (untreated cells) using trypan blue. Cytotoxicity was measured according to the following formula:
# [1−(# of cells in control−# of live cells in test sample)/# of cells in control]×100 percent.
# [2] = MTT cell proliferation assay, fibroblasts; assay type: cell-based, human; details: human, MTT, 72 h, read-out: fibroblast proliferation rate after 72 hours
# Experimental: Proliferation rates for three human cell lines (epidermal progenitors, melanoblasts, and fibroblasts) were determined using a TACS® MTT Cell Proliferation Kit. Cells were seeded at 2.5×10^4/well in 96-well plates in a humidified atmosphere with 5 percent CO2 at 37 degrees Celsius. Twenty-four hours later, the decapeptides were added to the corresponding wells at varying concentrations and incubated for 72 hours. The remainder of the procedure was performed following the manufacturer's protocol.
# SIRT7 = SIRT7 transcription, semi-quantitative RT-PCR in human epidermal progenitors; assay type: cell-based; details: 72 h
# Experimental: as §1, §2, §3, §4, §5, §6
# [3] = test system: human epidermal progenitors; experiment: Trypan blue dye exclusion cytotoxicity assay, 72 h, epidermal progenitors; assay type: cell-based; details: human epidermal progenitors; for cell death: 72 h, trypan blue
# Experimental: Cellular toxicity was measured using a trypan blue dye exclusion assay. Cells were cultured in 6-well plates at a density of 4×10^5 cells/well. Each well received a different concentration of decapeptide-12 or oxyresveratrol (0, 3, 10, 30, 100, 300, and 1000 μM). Plates were incubated at 37 degrees Celsius in a humidified 5 percent CO2 chamber. After 72 h, an aliquot was taken and cells counted using a hemacytometer. Cytotoxicity was measured according to the following formula: [1−(# of cells in control−# of live cells in test sample)/# of cells in control]×100 percent.
# human skin = details: previously reported; cited from earlier work
# patients with dyschromia = details: topical cream containing 0.01 percent, twice daily for 8 weeks; cited from earlier work
compound,measurement,setting,value
"CCCCCCCCCCCCCCCC(=O)N[C@@H](Cc1ccc(O)cc1)C(=O)N[C@@H](CCCNC(=N)N)C(=O)N[C@@H](CO)C(=O)N[C@@H](CCCNC(=N)N)C(=O)N[C@@H](CCCCN)C(=O)N[C@H](Cc1ccc(O)cc1)C(=O)N[C@@H](CO)C(=O)N[C@@H](CO)C(=O)N[C@@H](Cc1c[nH]c2ccccc12)C(=O)N[C@@H](Cc1ccc(O)cc1)C(N)=O [P4B, Palmitoyl-YRSRK[*Y]SSWY-amide] (HELM PEPTIDE1{[CCCCCCCCCCCCCCCC(=O)[*:2]].Y.R.S.R.K.[dY].S.S.W.Y.[am]}$$$$V2.0)",SIRT5 transcription increase relative to control,SIRT5; 10 μM,2.00%
same,SIRT5 transcription increase relative to control,SIRT5; 30 μM,1.00%
same,SIRT5 transcription increase relative to control,SIRT5; 50 μM,1.00%
same,SIRT5 transcription increase relative to control,SIRT5; 100 μM,35 ± 3%
same,SIRT5 transcription increase relative to control,SIRT5; 300 μM,29 ± 5%
same,"viability at 168 h, 3 µM",[1],100%
same,"viability at 168 h, 10 µM",[1],98.8 ± 1%
same,"viability at 168 h, 30 µM",[1],98.3 ± 1%
same,"viability at 168 h, 50 µM",[1],97.6 ± 1%
same,"viability at 168 h, 100 µM",[1],97.3 ± 2%
same,"viability at 168 h, 300 µM",[1],96.5 ± 2%
same,"viability at 168 h, 500 µM",[1],95.3 ± 3%
same,"viability at 168 h, 1000 µM",[1],94.2 ± 3%
same,"viability at 72 h, 3 µM",[2],100%
same,"viability at 72 h, 10 µM",[2],99 ± 1%
same,"viability at 72 h, 30 µM",[2],99 ± 1%
same,"viability at 72 h, 50 µM",[2],99 ± 1%
same,"viability at 72 h, 100 µM",[2],98 ± 2%
same,"viability at 72 h, 300 µM",[2],97 ± 2%
same,"viability at 72 h, 500 µM",[2],96 ± 2%
same,"viability at 72 h, 1000 µM",[2],96 ± 2%
same,SIRT7 transcription increase relative to control,SIRT7; 10 μM,20 ± 6%
same,SIRT7 transcription increase relative to control,SIRT7; 30 μM,23 ± 5%
same,SIRT7 transcription increase relative to control,SIRT7; 50 μM,54 ± 7%
same,SIRT7 transcription increase relative to control,SIRT7; 100 μM,61 ± 7%
same,SIRT7 transcription increase relative to control,SIRT7; 300 μM,103 ± 8%
"Ac-YRSRKYSSWY-NH2 [P4C, Acetyl-YRSRKYSSWY-amide]",SIRT5 transcription increase relative to control,SIRT5; 10 μM,4 ± 1%
same,SIRT5 transcription increase relative to control,SIRT5; 30 μM,2 ± 1%
same,SIRT5 transcription increase relative to control,SIRT5; 50 μM,3 ± 1%
same,SIRT5 transcription increase relative to control,SIRT5; 100 μM,35 ± 2%
same,SIRT5 transcription increase relative to control,SIRT5; 300 μM,28 ± 9%
same,"viability at 168 h, 3 µM",[1],100%
same,"viability at 168 h, 10 µM",[1],98.9 ± 1%
same,"viability at 168 h, 30 µM",[1],98.3 ± 1%
same,"viability at 168 h, 50 µM",[1],97.8 ± 1%
same,"viability at 168 h, 100 µM",[1],97.4 ± 2%
same,"viability at 168 h, 300 µM",[1],96.5 ± 2%
same,"viability at 168 h, 500 µM",[1],95.7 ± 2%
same,"viability at 168 h, 1000 µM",[1],94.9 ± 3%
same,"viability at 72 h, 3 µM",[2],100%
same,"viability at 72 h, 10 µM",[2],99 ± 1%
same,"viability at 72 h, 30 µM",[2],99 ± 1%
same,"viability at 72 h, 50 µM",[2],99 ± 1%
same,"viability at 72 h, 100 µM",[2],98 ± 2%
same,"viability at 72 h, 300 µM",[2],97 ± 2%
same,"viability at 72 h, 500 µM",[2],96 ± 2%
same,"viability at 72 h, 1000 µM",[2],96 ± 2%
same,SIRT7 transcription increase relative to control,SIRT7; 10 μM,14 ± 5%
same,SIRT7 transcription increase relative to control,SIRT7; 30 μM,7 ± 2%
same,SIRT7 transcription increase relative to control,SIRT7; 50 μM,46 ± 5%
same,SIRT7 transcription increase relative to control,SIRT7; 100 μM,80 ± 11%
same,SIRT7 transcription increase relative to control,SIRT7; 300 μM,130 ± 9%
"YRSRKYSSWY [decapeptide-12, YRSRKYSSWY]",cell death,[3]; 100 μM,3±1%
same,cell death,[3]; 1 mM,7±2%
same,cytotoxicity compared with oxyresveratrol,[3],reduced cytotoxicity
same,SIRT5 transcription increase relative to control,SIRT5; 3 μM,3 ± 1%
same,SIRT5 transcription increase relative to control,SIRT5; 10 μM,5.2 ± 3%^
same,SIRT5 transcription increase relative to control,"SIRT5; 10 μM, listed as P4",5 ± 3%
same,SIRT5 transcription increase relative to control,SIRT5; 30 μM,21 ± 6.7%
same,SIRT5 transcription increase relative to control,"SIRT5; 30 μM, listed as P4",21 ± 7%
same,SIRT5 transcription increase relative to control,SIRT5; 50 μM,33.1 ± 6.1%
same,SIRT5 transcription increase relative to control,"SIRT5; 50 μM, listed as P4",33 ± 6%
same,SIRT5 transcription increase relative to control,"SIRT5; 100 μM, listed as Deca",46 ± 7.3%
same,SIRT5 transcription increase relative to control,"SIRT5; 100 μM, listed as P4",46 ± 7%
same,SIRT5 transcription increase relative to control,SIRT5; 300 μM,67 ± 9.3%
same,SIRT5 transcription increase relative to control,"SIRT5; 300 μM, listed as P4",67 ± 9%
same,SIRT5 transcription increase relative to control,SIRT5; 500 μM,87.4 ± 15.1%
same,SIRT5 transcription increase relative to control,SIRT5; 1000 μM,92.1 ± 16.8%
same,"viability at 168 h, 3 µM",[1],100%
same,"viability at 168 h, 10 µM",[1],98.6 ± 1%
same,"viability at 168 h, 30 µM",[1],98.2 ± 1%
same,"viability at 168 h, 50 µM",[1],97.8 ± 1%
same,"viability at 168 h, 100 µM",[1],97.2 ± 1%
same,"viability at 168 h, 300 µM",[1],95.6 ± 2%
same,"viability at 168 h, 500 µM",[1],94.5 ± 2%
same,"viability at 168 h, 1000 µM",[1],93.8 ± 1%
same,hypopigmenting efficacy,human skin,potent hypopigmenting efficacy
same,"viability at 72 h, 3 µM",[2],100%
same,"viability at 72 h, 10 µM",[2],99 ± 1%
same,"viability at 72 h, 30 µM",[2],99 ± 1%
same,"viability at 72 h, 50 µM",[2],98 ± 1%
same,"viability at 72 h, 100 µM",[2],97 ± 1%
same,"viability at 72 h, 300 µM",[2],97 ± 1%
same,"viability at 72 h, 500 µM",[2],97 ± 2%
same,"viability at 72 h, 1000 µM",[2],96 ± 2%
same,SIRT7 transcription increase relative to control,SIRT7; 3 μM,5 ± 1%
same,SIRT7 transcription increase relative to control,SIRT7; 10 μM,15 ± 4.2%
same,SIRT7 transcription increase relative to control,"SIRT7; 10 μM, listed as P4",15 ± 4%
same,SIRT7 transcription increase relative to control,SIRT7; 30 μM,34.4 ± 9.2%
same,SIRT7 transcription increase relative to control,"SIRT7; 30 μM, listed as P4",34 ± 9%
same,SIRT7 transcription increase relative to control,SIRT7; 50 μM,61.3 ± 10.2%
same,SIRT7 transcription increase relative to control,"SIRT7; 50 μM, listed as P4",61 ± 10%
same,SIRT7 transcription increase relative to control,SIRT7; 100 μM,95.4±14% and 95±14%
same,SIRT7 transcription increase relative to control,"SIRT7; 100 μM, listed as Deca",95.4 ± 14.2%
same,SIRT7 transcription increase relative to control,"SIRT7; 100 μM, listed as P4",95 ± 14%
same,SIRT7 transcription increase relative to control,SIRT7; 300 μM,148 ± 9.6%
same,SIRT7 transcription increase relative to control,"SIRT7; 300 μM, listed as P4",148 ± 10%
same,SIRT7 transcription increase relative to control,SIRT7; 500 μM,171.4 ± 8.4%
same,SIRT7 transcription increase relative to control,SIRT7; 1000 μM,181.1 ± 8.4%
same,facial skin appearance,patients with dyschromia,overall improvement in facial skin appearance
